In patent US20200063104A1, “EXPANSION OF HPSC-DERIVED GRANULOCYTIC AND LYMPHOID PROGENITORS WITH UM171” (Wisconsin Alumni Research Foundation, priority 2018, published 2020):

Experiments:
[1] = test system: hPSCs (NK cell production); conditions: 28-day period, prior studies; cited from earlier work
[2] = test system: CD34+CD43+ hPSC-derived HPs; assay: Expansion of hPSC-derived hematopoietic progenitors in HSC expansion conditions (flow cytometry); type: cell-based, human
Description: To understand the effect of UM171 on hPSC-derived HPs and provide mechanistic insight on its action, we performed hematopoietic differentiation of H1 hESCs in defined feeder- and serum-free defined conditions for 9 days to generate HPs^10. We then cultured the cells in SFEM medium supplemented with cytokines that support expansion of HSCs (TPO, SCF, FLT3L, IL3 and IL6), and with UM171 or DMSO (negative control) (FIG. 1A). […] Overall, cultures with UM171 generated up to 10-fold higher numbers of CD34^+CD43^+CD45^+ HPs, as compared to control cultures.
Hematopoietic progenitors from Day 9 differentiation cultures were expanded in StemSpan™-SFEM (Stem Cell Technologies), supplemented with 35 nM UM171 (Xcess Biosciences), or equivalent volume of DMSO, and 100 ng/ml TPO, 100 ng/ml SCF, 100 ng/ml FLT3L, 50 ng/ml IL-6, and 10 ng/ml IL-3. Expansion cultures were supplemented with fresh StemSpan™-SFEM (Stem Cell Technologies) media with the same cytokine concentrations, every 3 days. Cells were plated at up to 150,000 cells/ml. At day 5 or indicated time points, cells were collected for flow cytometric (FCM) analysis and CFU assay. […]

[3] = test system: CD34+CD43+ hPSC-derived HPs; assay: Apoptosis by annexin V assay in HP expansion cultures; type: cell-based, human; conditions: 5 days of expansion, UM171 vs DMSO
Procedure: (§1) For apoptosis detection, cells were stained with CD34-FITC, CD45-BV421, and CD43-APC (BD Pharmingen), along with PI and Annexin V-PE (BD Pharmingen), and analyzed by flow cytometry. To assess proliferation of hematopoietic progenitors, using cell proliferation antigen Ki-67, cells were incubated with CD34-PE, CD43-BV421 (BD Pharmingen), and Ghost violet 540 cell viability dye (TONBO Biosciences). Cells were then fixed and permeabilized with 70% ethanol, and stained with Ki67-APC (Miltenyi Biotech), according to the manufacturer protocol, and analyzed by flow cytometry. Cell cycle analysis of total hematopoietic progenitors was carried out using the FITC BrdU flow kit (BD Pharmingen), following manufacturer recommendations. On day four of HP expansion in HSC or lymphoid expansion conditions and on day 3 of NK differentiation cells were labelled with BrdU. […] CD34^+CD43^+CD45^+ and CD34^+CD43^+CD45^+CD41a^+ hematopoietic progenitors, CD34^+CD45^+CD7^+, lymphoid progenitors, or CD45^+CD56^+ NK cells were then analyzed for cell cycle kinetics and proliferation, through BrdU incorporation.

CD34+CD235+CD41a+ cells = assay: RNAseq analysis of CD34+CD235+CD41a+ cells expanded in HSC expansion conditions; type: cell-based, human
Procedure: To analyze changes in molecular profile induced by UM171, we isolated CD34^+CD235^+CD41a^+ cells on day 9 of differentiation, cultured them in HSC expansion conditions with UM171 or DMSO for 16 hours and 5 days, and then performed RNAseq analysis of expanded cells.
Total RNA was isolated using RNeasy Micro Kit (Qiagen) and subjected to DNase digestion, according to the manufacturer's protocol. Isolated RNAs were used for either quantitative RT-PCR or RNA sequencing. RNA purity and integrity was evaluated by capillary electrophoresis on the Bioanalyzer 2100 (Agilent Technologies, Santa Clara, Calif.). […] Final sample libraries were quantitated with the Life Technologies Qubit fluorometer and sequenced on the Illumina HiSeq 3000 (SY-401-3001). […] Following quality assessment and filtering for adapter molecules and other sequencing artifacts, the sequencing reads were aligned to transcript sequences corresponding to hg19 human genome annotation. Bowtie v 1.1.2 was used allowing two mismatches in a 25 bp seed and excluding reads with more than 200 alignments^25. RSEM v 1.3.0 was used to estimate isoform or gene relative expression levels in units of “transcripts per million” (tpm), as well as posterior mean estimate of the “expected counts” (the non-normalized absolute number of reads assigned by RSEM to each isoform/gene)^26,27. […]

[4] = test system: hPSC-derived HPs (CFC potential); assay: Methylcellulose colony forming assay of expanded HPs; type: cell-based, human
Procedure: Hematopoietic colony forming potential was assessed by combining cells of interest with 1.5 ml serum containing H4436 Methocult (Stem Cell Technologies). Cell suspensions were then transferred to 35-mm dishes and cultured for 12-14 days at 37° C. Hematopoietic colonies were scored according to cellular morphology, and CFC numbers were normalized to the number of cells plated (CFCs/10^4) cells.

[5] = test system: hPSC-derived HPs (NK cell production); assay: NK cell differentiation of hPSC-derived HPs on OP9-DLL4; type: cell-based, human
Description: To assess the effect of UM171 on NK cell differentiation, we collected HPs from hPSC cultures on day 9 of differentiation, and cultured them on OP9-DLL4, with or without UM171, as shown in FIG. 5A. After 14 days, these cultures generated CD56^+ NK cells that expressed CD94 and CD16, markers of mature NK cells. Although UM171 had no effect on the percentages of NK cells or their phenotype, the absolute numbers of NK cells generated with UM171 were approximately 10-fold higher as compare to DMSO controls (FIG. 5B-D). […] Similar findings were obtained with HPs generated from H9 hESCs and the IISH2i-BM9 iPSC line that was derived from bone marrow mononuclear cells (FIG. 9).
NK differentiation of hematopoietic progenitor cells was performed in α-MEM (Gibco), supplemented with 20% FBS (HyClone), on mouse OP9-DLL4 expressing feeder layer, in two stages. In stage 1, hematopoietic progenitor cells were cultured for 7 days on OP9-DLL4, with 100 ng/ml FLT3L, 40 ng/ml SCF, and 5 ng/ml IL-7 (Peprotech), and 35 nM UM171 or equivalent volume DMSO. Cells were then transferred to fresh α-MEM media, supplemented with 10 ng/ml Il-2 and 5 ng/ml IL-15 (Peprotech), and with or without UM171 treatment. Media was topped up with one volume fresh media, every 3-4 days, and cultures were transferred to new OP9-DLL4 cells, every 7 days. After 14 to 21 days, cells were harvested for flow cytometry and other analyses. OP9-DLL4 were used at 75-80% confluency.

[6] = test system: CD34+CD45+CD7+ progenitors; assay: BrdU cell cycle analysis in NK differentiation cultures; type: cell-based, human; conditions: lymphoid stage of NK differentiation
Procedure: as §1

[7] = test system: CD34+CD43+ hPSC-derived HPs; assay: Proliferation and cell cycle (BrdU assay, Ki67 staining) in HP expansion cultures; type: cell-based, human
Procedure: For apoptosis detection, cells were stained with CD34-FITC, CD45-BV421, and CD43-APC (BD Pharmingen), along with PI and Annexin V-PE (BD Pharmingen), and analyzed by flow cytometry. To assess proliferation of hematopoietic progenitors, using cell proliferation antigen Ki-67, cells were incubated with CD34-PE, CD43-BV421 (BD Pharmingen), and Ghost violet 540 cell viability dye (TONBO Biosciences). Cells were then fixed and permeabilized with 70% ethanol, and stained with Ki67-APC (Miltenyi Biotech), according to the manufacturer protocol, and analyzed by flow cytometry. Cell cycle analysis of total hematopoietic progenitors was carried out using the FITC BrdU flow kit (BD Pharmingen), following manufacturer recommendations. On day four of HP expansion in HSC or lymphoid expansion conditions and on day 3 of NK differentiation cells were labelled with BrdU. After 24 hours, samples were collected and incubated with CD34-PE, CD43-BV421 (BD Pharmingen), and CD45-APC (Miltenyi Biotech); CD34-PE or 34 PerCP, CD45-BV421 (BD Pharmingen), and CD41a-APC (Miltenyi Biotech); CD45-BV421, CD7-PE, and CD34-APC (BD Pharmingen); or CD45-BV421 and CD56-APC (BD Pharmingen), and then counterstained with Ghost violet 540 cell viability dye (TONBO Biosciences). This was followed by fixation, permeabilization, and a 1 hour incubation with DNase at 37° C., to expose incorporated BrdU. After washing, cells were stained first with anti BrdU-FITC, followed by 7AAD, and flow cytometry was performed. CD34^+CD43^+CD45^+ and CD34^+CD43^+CD45^+CD41a^+ hematopoietic progenitors, CD34^+CD45^+CD7^+, lymphoid progenitors, or CD45^+CD56^+ NK cells were then analyzed for cell cycle kinetics and proliferation, through BrdU incorporation.

[8] = 5 days of expansion, UM171 vs DMSO

SMILES	fold increase in NK cell output [1]	fold higher numbers of CD34+CD43+CD45+ HPs as compared to control cultures ([2]; 35 nM UM171 vs DMSO, H1 hESC-derived day 9 HPs, SFEM with TPO, SCF, FLT3L, IL3, IL6)	CD201 expression in CD34+CD45+ HPs ([2]; HSC expansion conditions, 35 nM UM171)	number of apoptotic, especially late apoptotic (AnnexinV+PI+) cells [3]	number of viable cells [3]	expression of aryl-hydrocarbon receptor target genes (CD34+CD235+CD41a+ cells; UM171 vs DMSO, 16 hours and 5 days)	AHR and AHRR expression (CD34+CD235+CD41a+ cells; hPSC-derived HPs)	effect on CFC potential of expanded cells ([4]; HPs expanded 5 and 7 days with UM171 vs DMSO)	share of G-CFCs in the CD34+CD41a(lo)CD45+ progenitor population ([4]; UM171 cultures with HSC expansion cytokines) [%]	fold higher absolute numbers of NK cells as compared to DMSO controls ([5]; 35 nM UM171, after 14 days on OP9-DLL4)	stage of NK differentiation at which addition has an effect ([5]; added during first 7 or final 7-14 days)	percentages of NK cells or their phenotype ([5]; after 14 days on OP9-DLL4, UM171 vs DMSO)	fold increase in NK cell output ([5]; lymphoid cultures on OP9-DLL4 with SCF, FLT3L, IL7, 14-day period)	fold increase in NK and T cell output ([5]; lymphoid cultures on OP9-DLL4 with SCF, Flt-3, IL7)	proportion of proliferating CD34+CD45+CD7+ progenitors [6]	cell cycle distribution of HPs [7, 8]	proliferation of HPs by BrdU assay and Ki67 staining [7, 8]	proportions of CD41a(lo) and CD41a(hi) cells within BrdU+ fraction ([7]; UM171 expansion cultures)	fold higher frequency of proliferating CD41a(lo) HPs as compared to DMSO control ([7]; within BrdU+ fraction, CD34+CD45+ gated, 5 days of expansion)
CC(C)n1cnc2c(NCCc3ccc(O)cc3)nc(-c3csc4ccccc34)nc21 [SR1]	up to 2 fold																		
Cn1nnc(-c2ccc3c(c2)[nH]c2nc(Cc4ccccc4)nc(NC4CCC(N)CC4)c23)n1 (stereo not shown) [UM171]		up to 10 fold	induction of CD201 expression	decreased number of apoptotic	increased number of viable cells	did not affect	minimal effect	most dramatic effect on G-CFCs	> 50	approximately 10 fold	only when added during the first 7 days	no effect	up to 10 fold	up to 10 fold	increases the proportion of proliferating	predominantly increases the proportion of HPs in the early S phase	increased proliferation	approximately equal proportions	up to 7 fold
